Measurements from patent US6737383B1, “Herbicidal oxadiazolidines” (priority 1999, dated 2004).

Tests used:
bedstraw = experiment: Test B pre/postemergence bedstraw; assay type: in vivo, Galium aparine
Outline: (§1)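 Response is a visual 0-to-10 score relative to untreated plants, where 0 means no effect and 10 means complete control, taken twelve to sixteen days after application. Treatments went onto soil at planting and onto foliage of 1- to 4-leaf plants, using a surfactant-containing non-phytotoxic solvent.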

surinam grass = experiment: Test B pre/postemergence surinam grass; assay type: in vivo, Brachiaria decumbens
Outline: as §1

wild oat [1] = experiment: Test B pre/postemergence wild oat; assay type: in vivo, Avena fatua
Outline: as §1

bamyardgrass = experiment: Test B flood test barnyardgrass; assay type: in vivo, Echinochloa crus-galli
Outline: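 Plants were grown to the 2-leaf stage before treatment with test chemical, then held in a greenhouse for twelve to sixteen days. Injury was visually rated against untreated controls on a 0–10 scale, where 0 is no effect and 10 is complete control.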

goosegrass = experiment: Test D goosegrass; assay type: in vivo, Eleusine indica; details: Preemergence, 0 to 100 scale
Outline: (§2)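 Herbicide screen in the greenhouse. A non-phytotoxic solvent mixture with surfactant carried the test chemical; in pre-emergence tests it went onto the soil of pots seeded no more than a day earlier. Injury was scored by eye 14 to 21 days after application, 0 to 100.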

Johnson grass = experiment: Test D Johnson grass; assay type: in vivo, Sorghum halepense; details: Preemergence, 0 to 100 scale
Outline: as §2

sandbur = experiment: Test D sandbur; assay type: in vivo, Cenchrus echinatus; details: Preemergence, 0 to 100 scale
Outline: as §2

tall mallow = experiment: Test D tall mallow; assay type: in vivo, Malva sylvestris; details: Preemergence, 0 to 100 scale
Outline: as §2

winter wheat [2] = experiment: Test E winter wheat; assay type: in vivo, Triticum aestivum; details: Postemergence, 0 to 100 scale
Outline: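 Greenhouse-grown plants are treated (postemergence: 1- to 4-leaf stage, sandy loam/potting mix 60:40), then evaluated visually versus untreated controls some 21 to 28 days later.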

blackgrass = experiment: Test E blackgrass; assay type: in vivo, Alopecurus myosuroides; details: Preemergence
green foxtail = experiment: Test E green foxtail; assay type: in vivo, Setaria viridis; details: Preemergence
Italian ryegrass = experiment: Test E Italian ryegrass; assay type: in vivo, Lolium multiflorum; details: Preemergence
winter wheat [3] = experiment: Test E winter wheat; assay type: in vivo, Triticum aestivum; details: Preemergence
wild oat [4] = experiment: Test E wild oat; assay type: in vivo, Avena fatua; details: Preemergence
winter barley = experiment: Test E winter barley; assay type: in vivo, Hordeum vulgare; details: Preemergence
[5] = Postemergence, Rate 125 g/ha, scale of 0 to 10 where 0 is no effect and 10 is complete control
[6] = Preemergence, Rate 62 g/ha, scale of 0 to 10 where 0 is no effect and 10 is complete control
[7] = Preemergence, Rate 125 g/ha, 0 is no effect, 10 is complete control
[8] = Preemergence, Rate 250 g/ha, scale 0 to 10, 0 is no effect, 10 is complete control
[9] = Preemergence, Rate 500 g/ha, scale 0 to 10 (0 no effect, 10 complete control)
[10] = Rate 62 g/ha, Postemergence, scale of 0 to 10 where 0 is no effect and 10 is complete control
[11] = Rate 250 g/ha, Postemergence, scale 0 to 10, 0 is no effect, 10 is complete control
[12] = Rate 500 g/ha, Postemergence, scale 0 to 10
[13] = Rate 16 g/ha, 0 no injury, 100 complete control
[14] = Rate 32 g/ha, 0 no injury, 100 complete control
[15] = Rate 64 g/ha, 0 no injury, 100 complete control
[16] = Rate 125 g/ha, 0 no injury, 100 complete control
[17] = Rate 62 g/ha, 0 to 100 scale, 0 no effect, 100 complete control
[18] = Rate 125 g/ha, 0 to 100 scale (0 no effect, 100 complete control)

Compound: CC(C)N(C(=O)n1oc(=O)n(N(C)C)c1=O)c1ccc(F)cc1 [Compound 170]
- Bedstraw plant response rating (bedstraw; [5]): 0
- Bedstraw plant response rating (bedstraw; [6]): 0
- Bedstraw plant response rating (0 to 10 scale) (bedstraw; [7]): 0
- Bedstraw plant response rating (bedstraw; [8]): 6
- Bedstraw plant response rating (bedstraw; [9]): 9
- Bedstraw plant response rating (bedstraw; [10]): 0
- Plant response rating, Bedstraw (bedstraw; [11]): 0
- Bedstraw plant response rating (bedstraw; [12]): 2
- B. signalgrass plant response rating (surinam grass; [5]): 6
- B. signalgrass plant response rating (surinam grass; [6]): 2
- B. signalgrass plant response rating (0 to 10 scale) (surinam grass; [7]): 9
- B. signalgrass plant response rating (surinam grass; [8]): 10
- B. signalgrass plant response rating (surinam grass; [9]): 10
- B. signalgrass plant response rating (surinam grass; [10]): 3
- Plant response rating, B. signalgrass (surinam grass; [11]): 9
- B. signalgrass plant response rating (surinam grass; Rate 500 g/ha, Postemergence, scale 0 to 10, 0 no effect, 10 complete control): 10
- Wild oats plant response rating (wild oat [1]; [6]): 7
- Wild oats plant response rating (0 to 10 scale) (wild oat [1]; [7]): 9
- Wild oats plant response rating (wild oat [1]; [8]): 10
- Wild oats plant response rating (wild oat [1]; [9]): 10
- Plant response rating, Wild oats (wild oat [1]; [11]): 3
- Wild oats plant response rating (wild oat [1]; [12]): 6
- Barnyardgrass plant response rating (bamyardgrass; Postemergence (flood test species), Rate 125 g/ha, scale of 0 to 10 where 0 is no effect and 10 is complete control): 0
- Barnyardgrass plant response rating (bamyardgrass; Rate 62 g/ha, Postemergence section, flood test species, scale of 0 to 10 where 0 is no effect and 10 is complete control): 0
- Plant response rating, Barnyardgrass (bamyardgrass; Rate 250 g/ha, Postemergence (flood test), scale 0 to 10, 0 is no effect, 10 is complete control): 0
- Barnyardgrass plant response rating (bamyardgrass; Rate 500 g/ha, listed under Postemergence (flood test species), scale 0 to 10): 0
- Plant response rating, Goosegrass (goosegrass; [13]): 50
- Plant response rating, Goosegrass (goosegrass; [14]): 65
- Plant response rating, Goosegrass (goosegrass; [15]): 75
- Plant response rating, Goosegrass (goosegrass; [16]): 75
- Plant response rating, Goosegrass (goosegrass; Rate 250 g/ha): 98
- Plant response rating, Goosegrass (goosegrass; Rate 500 g/ha): 100
- Plant response rating, Johnsongrass (Johnson grass; [13]): 0
- Plant response rating, Johnsongrass (Johnson grass; [14]): 0
- Plant response rating, Johnsongrass (Johnson grass; [15]): 0
- Plant response rating, Johnsongrass (Johnson grass; [16]): 75
- Plant response rating, Johnsongrass (Johnson grass; Rate 250 g/ha): 100
- Plant response rating, Johnsongrass (Johnson grass; Rate 500 g/ha): 95
- Plant response rating, Sandbur (sandbur; [13]): 0
- Plant response rating, Sandbur (sandbur; [14]): 0
- Sandbur plant response rating (sandbur; [15]): 40
- Sandbur plant response rating (sandbur; [16]): 40
- Plant response rating, Sandbur (sandbur; Rate 250 g/ha): 40
- Plant response rating, Sandbur (sandbur; Rate 500 g/ha): 98
- Plant response rating, Tall Mallow (tall mallow; [13]): 30
- Plant response rating, Tall Mallow (tall mallow; [14]): 30
- Tall Mallow plant response rating (tall mallow; [15]): 30
- Tall Mallow plant response rating (tall mallow; [16]): 30
- Plant response rating, Tall Mallow (tall mallow; Rate 250 g/ha): 40
- Plant response rating, Tall Mallow (tall mallow; Rate 500 g/ha): 45
- Plant response rating, Wheat (winter) (winter wheat [2]; Rate 62 g/ha): 80
- Plant response rating, Wheat (winter) (winter wheat [2]; Rate 125 g/ha): 75
- Plant response rating, Blackgrass (blackgrass; [17]): 60
- Plant response rating, Blackgrass (blackgrass; [18]): 60
- Blackgrass plant response rating (0 to 100 scale) (blackgrass; Rate 250 g/ha): 85
- Plant response rating, Green foxtail (green foxtail; [17]): 100
- Plant response rating, Green foxtail (green foxtail; [18]): 100
- Green foxtail plant response rating (0 to 100 scale) (green foxtail; Rate 250 g/ha): 100
- Plant response rating, I. Ryegrass (Italian ryegrass; [17]): 60
- Plant response rating, I. Ryegrass (Italian ryegrass; [18]): 70
- I. Ryegrass plant response rating (0 to 100 scale) (Italian ryegrass; Rate 250 g/ha): 70
- Plant response rating, Wheat (winter) (winter wheat [3]; [17]): 70
- Plant response rating, Wheat (winter) (winter wheat [3]; [18]): 70
- Wheat (winter) plant response rating (0 to 100 scale) (winter wheat [3]; Rate 250 g/ha): 70
- Plant response rating, Wild oat (wild oat [4]; [17]): 65
- Plant response rating, Wild oat (wild oat [4]; [18]): 70
- Wild oat plant response rating (0 to 100 scale) (wild oat [4]; Rate 250 g/ha): 70
- Plant response rating, Barley (winter) (winter barley; [17]): 60
- Plant response rating, Barley (winter) (winter barley; [18]): 60
- Barley (winter) plant response rating (0 to 100 scale) (winter barley; Rate 250 g/ha): 70
